The values that follow come from patent publication US20250066485A1, “USE OF INTEGRIN a5b1 INHIBITORS IN THE TREATMENT OF PULMONARY HYPERTENSION AND HEART FAILURE” (Morphic Therapeutic, Inc., priority 2022, published 2025).

Like-named read-outs stand apart in the source and are kept apart here.

For data set [1], the system named is hPASMCs. In words: hPASMC proliferation on fibronectin-coated plates. Format: cell-based, human. To be noted: fibronectin-coated 96 well plate, up to 5 days. On the procedure:
Antibody integrin α5β1 inhibitors were evaluated to determine whether integrin α5β1 inhibitors (e.g., P1D6 antibody or M200 antibody) could impair proliferation. Cells were seeded at 3000 cells/well in a 96 well plate coated with fibronectin. The next day integrin α5β1 inhibitor treatments were added and proliferation was monitored for up to 5 days.

For data set [2] the following is noted: cited from earlier work.
The subject of data set [3] is PAB rats. In words: Pulmonary Arterial Banding (PAB) rat model. Format: in vivo. On the procedure: Animals were divided into three study groups as follows: • (1) Control group/Sham (n=5) • (2) PAB+PBS vehicle orally twice a day (BID) (n=10) • (3) PAB+SMi at 100 mpk orally BID (n=10)
Pulmonary arterial constriction was surgically performed in rats at day 0. Beginning in week 4 following surgery, animals were exposed to vehicle or SMi treatment. Weekly echocardiography was performed from surgery to week 10. After a total of 10 weeks, animals were subjected to RV catheterization.
PAB rats were subjected to right heart catheterization (RHC) (using standard techniques and while the subject is in steady state). Treatment with integrin α5β1 inhibitor, SMi improved cardiac output, stroke volume, RVSP and RVEPD.

In data set [4] the test system is MCT rats. In words: Monocrotaline (MCT) rat pulmonary hypertension model. The data set is classed as in vivo. As to the method:
MCT Animals were divided into study groups as follows: • (1) Non-MCT vehicle orally twice a day (BID) (n=6) • (2) MCT+PBS vehicle orally twice a day (BID) (n=8) • (3) MCT+SMi at 100 mpk orally BID (n=8)
MCT (60 mg/kg) was administered by subcutaneous injection. Animals were exposed to vehicle or SMi treatment for 2 weeks. Blood, RV and lung analysis was performed. Cells were assessed for expression of EVG, αSMA, PCNA, and C3C. […] FIG. 12A-12D show exemplary results of treatment with SMi in MCT rats. Occlusion score (FIG. 12A), vascular remodeling (FIG. 12B), apoptosis (FIG. 12C) and proliferation (FIG. 12D) were measured.
MCT animals were treated with SMi alone or in combination with SoC therapy (Macitentan (1 mg/kg)+Tadalafil (10 mg/kg) daily). MCT Animals were divided into study groups as follows: • (1) Non-MCT vehicle orally twice a day (BID) (n=6) • (2) MCT+PBS vehicle orally twice a day (BID) (n=8) • (3) MCT+SMi at 100 mpk orally BID (n=8) • (4) MCT+SMi at 100 mpk orally BID+SoC (Macitentan (1 mg/kg)+Tadalafil (10 mg/kg) daily (n=8).
MCT (60 mg/kg) was administered by subcutaneous injection at day 0. Beginning in week 3, animals were exposed to vehicle or SMi treatment for 2 weeks. (FIG. 23A) Blood, RV and lung analysis was performed.
To determine the selectivity of SMi for α5β1, MCT animals were prepared as described above and treated with SMi or a dual inhibitor of α5β1/αvβ1 (MRT).

In data set [5] the test system is Primary rat cardiomyocytes. In words: PE-induced cardiomyocyte hypertrophy. Format: cell-based. To be noted: 100 μM PE; 0.25 μM, 1 μM, and 4 μM. As to the method:
Primary rat cardiomyocytes were treated with 50 μM, 100 μM, or 200 μM, phenylephrine (PE). Expression of ITGα5, ITGαV, ITGβ1, ITGβ3, ITGβ5 were determined by western blot (FIG. 21A). Cells treated with 100 μM PE were simultaneously exposed to integrin α5β1 inhibitor SMi at 0.25 μM, 1 μM, and 4 μM.

The subject of data set [6] is SuHx rats. The data set can be described thus: Sugen/Hypoxia (SuHx) induced PAH rat model. The data set is classed as in vivo. As to the method: Broad-spectrum pharmacological inhibition of α5β1 improves hemodynamics and vascular remodeling in Su/Hx rats with established PAH alone or in combination with standard of care.
Animals were injected with 20 mg/kg Sugen 5416 at day 0 and subjected to hypoxia conditions (10% oxygen) for 3 weeks. Echocardiography was performed at the start of treatment with integrin α5β1 inhibitors at week 3 and at week 5. Right heart catheterization was performed at the end of week 5. Tissues were harvested for analysis.

Data set [7] has as its system MCT animals. In words: MCT animals with a cardiac defect, echocardiography. The data set is classed as in vivo. To be noted: 100 mg/Kg PO BID, Day 14 to Day 27, PH phenotype not induced. As to the method: To test the impact of SMi on cardiac function, MCT animals with a cardiac defect were treated with SMi or sildenafil as follows (1) Non-MCT vehicle PO BID; (2) MCT+vehicle PO BID (3) MCT+SMi 100 mg/Kg PO BID (4) MCT+sildenafil 10 mg/Kg PO BID (5) MCT+sildenafil 30 mg/Kg PO BID (6) MCT+sildenafil 100 mg/Kg PO BID. Pulmonary hypertension phenotype was not induced in this study (MCT causes both vascular and cardiac injury). Treatment with SMi, vehicle or sildenafil was administered, twice a day, from Day 14 to Day 27. Echocardiogram monitoring of the progression of the disease was carried out on Day 0, Day 14 and on surgery day (Day 28) for all the animals. Blood samples were taken on Day 0, Day 14 and Day 28. Pulmonary artery maximum velocity, cardiac output, stroke volume, right ventricle anterior wall thickness and pulmonary artery acceleration time were determined. […] The data were used to calculate the cardiac output and the stroke volume as follows: The cardiac output was calculated using the following formula (JF Lewis et al. 1984): Cardiac output=heart rate×VTI((pulmonary artery diameter^2×3.1416)/4) The stroke volume was calculated using the following formula: Stroke volume=cardiac output/heart rate

Data set [8] has as its system PAH-PASMCs. The data set can be described thus: Proliferation (Ki67) and apoptosis (annexin V) of PAH-PASMCs on Fb-coated plates. The data set is classed as cell-based, human. The conditions noted are these: 0.25 μM, 1 μM, and 4 μM on Fb-coated plates. On the procedure: Integrin α5β1 inhibitors (MRT, SMi, P1D6, or M200) were assessed for proliferation and apoptosis on Fb-coated plates. FIG. 5A-5C show exemplary proliferation (Ki67) and apoptosis (annexin V) of PAH-PASMCs treated with integrin α5β1 inhibitors (MRT, SMi, P1D6, or M200).
PAH-PASMCs were treated with integrin α5β1 inhibitor SMi at 0.25 μM, 1 μM, and 4 μM on Fb-coated plates. Cells were evaluated by Western blot analysis to determine expression levels of ITGα5, ITGαV, ITGβ1, p-FAK, MCM2, PLK1, p-ERK, ERK, PCNA and Survivin in hPASMCs (FIG. 6A-6B).

For data set [9], the system named is Human PAH-RVFbs. The data set can be described thus: PAH-RVFbs proliferation and activation. The data set is classed as cell-based. The conditions noted are these: 0.25 μM, 1 μM, and 4 μM. As to the method:
PAH patient samples were assessed for expression of fibronectin binding integrins. […] Human PAH-RVFbs were treated with integrin α5β1 inhibitor SMi at 0.25 μM, 1 μM, and 4 μM. […] (FIGS. 22A and 22B).

For data set [10], the system named is SuHx mice. The data set can be described thus: Sugen/hypoxia (SuHx) mice model of PAH. Format: in vivo, mouse. The conditions noted are these: SMi 100 mpk PO BID, 339.1 10 mpk IP 3x week. On the procedure:
SuHx treated mice were prepared as described above and treated with integrin α5β1 antibody inhibitors (e.g., anti-mouse integrin α5β1 clone 339.1) or SMi. anti-mouse integrin α5β1 clone 339.1 is described in Bhaskar, V., Zhang, D., Fox, M. et al. A function blocking anti-mouse integrin α5β1 antibody inhibits angiogenesis and impedes tumor growth in vivo. J Transl Med 5, 61 (2007). doi.org/10.1186/1479-5876-5-61), which is hereby incorporated by reference in its entirety.
Mice were injected with 20 mg/kg Sugen 5416 (vascular endothelial growth factor receptor inhibitor) at day 0, day 7 and day 14 and subjected to hypoxia conditions (10% oxygen) for 3 weeks. Echocardiography was performed at the start of treatment with integrin α5β1 inhibitors at week 3 (e.g., day 21) and at the end of week 5. Right heart catheterization was performed at the end of week 5.
Cardiac function was measured including improved cardiac output, and stroke volume. Other features including media cell wall thickness, vascular remodeling, proliferation, and apoptosis were measured.
Mice were divided into the following treatment and control groups: • Control group (n=5) • Vehicle PO BID (n=10) • SMi 100 mpk PO BID (n=10) • Macitentan 15 mpk PO BID (n=15) • IgG isotype control10 mpk IP (3× week) (n=15) • 339.1 10 mpk IP (3× week) (n=15) • 339.1 10 mpk IP+Macitentan 15 mpk PO BID (n=15)

The conditions of data set [11]: at room temperature; cited from earlier work.
Data set [12] deals with integrin α5β1 on hPASMCs (human) (UniProt P08648). The data set can be described thus: cell-based or functional assay.
Data set [13] concerns the target rat α5β1 (cells expressing rat α5β1) (rat). In words: cell-based or functional assay.
Data set [14] has as its target rat α5β1 (cells expressing rat α5β1) (rat, UniProt A0A0G2K1E2 94-1099; P49134 21-798). The data set can be described thus: cell-based or functional assay.

Sequence of integrin α5β1 on hPASMCs (human) (P08648 42-1049, chain 1 of 2): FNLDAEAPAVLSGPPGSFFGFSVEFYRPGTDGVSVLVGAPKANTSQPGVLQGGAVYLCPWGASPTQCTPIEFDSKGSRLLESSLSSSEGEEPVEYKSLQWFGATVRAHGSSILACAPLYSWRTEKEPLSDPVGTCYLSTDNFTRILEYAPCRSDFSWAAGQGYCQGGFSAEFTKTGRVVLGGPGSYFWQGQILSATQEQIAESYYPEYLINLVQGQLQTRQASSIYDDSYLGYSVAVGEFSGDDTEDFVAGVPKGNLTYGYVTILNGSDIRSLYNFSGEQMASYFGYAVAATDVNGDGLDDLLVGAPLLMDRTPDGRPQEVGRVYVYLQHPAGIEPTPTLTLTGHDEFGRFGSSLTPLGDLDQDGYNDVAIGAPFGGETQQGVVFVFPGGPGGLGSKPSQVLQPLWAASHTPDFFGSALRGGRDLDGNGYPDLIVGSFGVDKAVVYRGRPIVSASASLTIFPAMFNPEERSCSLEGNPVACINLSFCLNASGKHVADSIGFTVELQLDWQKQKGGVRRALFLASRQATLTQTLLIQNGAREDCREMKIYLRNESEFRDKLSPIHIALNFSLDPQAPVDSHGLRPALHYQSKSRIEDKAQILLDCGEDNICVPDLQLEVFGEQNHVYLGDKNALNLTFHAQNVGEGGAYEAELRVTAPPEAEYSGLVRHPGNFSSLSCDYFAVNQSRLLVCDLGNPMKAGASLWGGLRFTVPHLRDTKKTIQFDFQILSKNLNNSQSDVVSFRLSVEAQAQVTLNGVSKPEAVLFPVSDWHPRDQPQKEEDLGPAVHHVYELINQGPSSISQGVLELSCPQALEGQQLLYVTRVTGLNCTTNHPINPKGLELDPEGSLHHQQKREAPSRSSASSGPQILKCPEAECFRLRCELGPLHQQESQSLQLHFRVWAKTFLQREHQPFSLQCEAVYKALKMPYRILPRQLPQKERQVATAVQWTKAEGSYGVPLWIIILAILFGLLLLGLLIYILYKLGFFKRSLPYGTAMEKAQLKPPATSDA
Sequence of integrin α5β1 on hPASMCs (human) (P05556 21-798, chain 2 of 2, further chain): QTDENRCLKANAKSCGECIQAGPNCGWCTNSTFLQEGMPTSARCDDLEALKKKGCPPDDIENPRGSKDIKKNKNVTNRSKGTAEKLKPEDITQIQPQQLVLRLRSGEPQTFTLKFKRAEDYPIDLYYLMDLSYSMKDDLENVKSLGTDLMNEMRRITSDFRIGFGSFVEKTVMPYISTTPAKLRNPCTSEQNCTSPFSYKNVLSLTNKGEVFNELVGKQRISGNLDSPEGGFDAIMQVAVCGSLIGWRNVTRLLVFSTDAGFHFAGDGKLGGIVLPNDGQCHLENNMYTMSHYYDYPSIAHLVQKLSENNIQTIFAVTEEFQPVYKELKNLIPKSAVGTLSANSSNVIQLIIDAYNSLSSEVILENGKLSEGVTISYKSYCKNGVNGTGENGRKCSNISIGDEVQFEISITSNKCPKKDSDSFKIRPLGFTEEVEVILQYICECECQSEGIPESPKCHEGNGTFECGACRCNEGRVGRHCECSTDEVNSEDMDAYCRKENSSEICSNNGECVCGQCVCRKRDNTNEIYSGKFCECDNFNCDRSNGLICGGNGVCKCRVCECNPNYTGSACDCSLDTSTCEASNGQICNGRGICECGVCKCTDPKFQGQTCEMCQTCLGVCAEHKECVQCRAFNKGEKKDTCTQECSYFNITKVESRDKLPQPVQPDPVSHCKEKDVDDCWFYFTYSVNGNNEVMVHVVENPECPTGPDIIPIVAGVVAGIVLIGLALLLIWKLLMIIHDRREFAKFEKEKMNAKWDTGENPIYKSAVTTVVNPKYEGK

Consider “M200: integrin α5β1 antibody, heavy chain SEQ ID NO: 1, light chain SEQ ID NO: 2”, for which the “proliferation of hPASMCs” value in data set [1] is on record as “reduced proliferation”.
In general, half-life refers to how long it takes for the measured level to halve. As to `CN1CC(=O)N2[C@H](c3ccc4c(c3)OCO4)c3[nH]c4ccccc4c3C[C@@H]2C1=O` [Tadalafil, tadalafil], in [2] (in patients with PAH), the half-life is on record as 35 h.
For `Cc1nn(C)c2c(C(C(=O)O)N3CC(OCCCCc4ccc5c(n4)NCCC5)C3)cccc12` (stereo not drawn) [SMi], the “hypertrophy and right ventricle (RV) fibrosis” value in [3] (100 mpk orally BID) is recorded as “improved”. Further, the “cardiac function over time compared to vehicle control” value in [3] (echocardiography) is “directly improved cardiac function”. Moreover, in data set [3] (right heart catheterization), the RVEPD result is “improved”, the RVSP result is listed as “improved”, the cardiac output entry was “improved” and the stroke volume result was “improved”. In data set [4], the “cardiac function vascular remodeling (EVG, media wall thickness, mPAP, cardiac output, RVFAC)” value is on record as “improved cardiac function vascular remodeling”. Moreover, the vascular remodeling result in data set [4] (100 mpk orally BID, 2 weeks) is recorded as “improved vascular remodeling”. Besides, the “hypertrophy and right ventricle (RV) fibrosis” value in data set [4] (SMi alone or in combination with SoCs) is recorded as “improved”. Besides, the vascular remodeling entry in data set [4] (SMi alone or with Maci (1 mg/kg) + Tada (10 mg/kg)) was “improved vascular remodeling”. Moreover, the “PE-induced adult rat cardiomyocytes hypertrophy” value in [5] is “prevents PE-induced adult rat cardiomyocytes hypertrophy”. Also, in [6] (SMi and/or SoCs), the apoptosis result is “improved”, the fibrosis entry was “reduced”, the hypertrophy entry is “reduced” and the “media cell wall thickness” value is given as “improved”. Also, in data set [6] (SMi and/or SoCs), the proliferation result is recorded as “improved”, the stroke volume result was “improved” and the vascular remodeling result is “improved”. Moreover, the cardiac output result in [6] (SMi and/or SoCs (Macitentan, Tadalafil)) is “improved”. In addition, the cardiac output result in [7] is given as “considerable increase”. Besides, in [8], the “apoptosis (annexin V)” value is on record as “increased apoptosis” and the “proliferation (Ki67)” value is recorded as “impaired proliferation”. The “PAH-RVFbs proliferation and activation” value in [9] is “decreases PAH-RVFbs proliferation and activation in a dose dependent manner”. In addition, the “cardiac and vascular improvement” value in data set [10] was “cardiac and vascular improvement”.
On to `CCCCC[C@H](O)/C=C/[C@@H]1[C@H]2C/C(=C/CCCC(=O)O)O[C@H]2C[C@H]1O` [Flolan, epoprostenol], for which the half-life in [2] (in vivo) is 0.05 to 0.083 h. Further, the stability in data set [11] was 8 h.
On to P1D6 (antibody), for which the reduction of hPASMCs proliferation in [12] came to 70%. In [13], this molecule yielded an IC50 (nM), cell adhesion assay of 5.6 nM and an IC50 (ug/ml), cell adhesion assay of 0.84 µg/mL.

B1: volociximab (M200) (antibody, human IgG4, kappa, V domains shown)
VH: QVQLKESGPGLVAPSQSLSITCTISGFSLTDYGVHWVRQPPGKGLEWLVVIWSDGSSTYNSALKSRMTIRKDNSKSQVFLIMNSLQTDDSAMYYCARHGTYYGMTTTGDALDYWGQGTSVTVSS
VL: QIVLTQSPAIMSASLGERVTMTCTASSSVSSNYLHWYQQKPGSAPNLWIYSTSNLASGVPARFSGSGSGTSYSLTISSMEAEDAATYYCHQYLRSPPTFGGGTKLEIKR
As for B1, in data set [14], the “IC50 (nM), cell adhesion assay” value is 6.8 nM and the “IC50 (ug/ml), cell adhesion assay” value came out at 1 µg/mL.
